Assay results reported in patent US11028078B2 (The Johns Hopkins University, priority 2011, dated 2021).

Columns and labels:
HUVEC tube formation = HUVEC tube formation assay on Matrigel; format: cell-based; conditions: Homo sapiens, 20 h, read-out: inhibition of HUVEC tube formation (total tube length)
Gli1 transcript = assay: Quantification of Gli1 transcript by TaqMan analysis in MB cells (Hh pathway); format: cell-based, mouse
Procedure, shortened: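 After drug exposure, total RNA extracted from MB cells, reverse transcribed, and Gli1 quantified by TaqMan qPCR with mouse Gli-1 and actin primer/probe sets. Values expressed as fold induction relative to control by the 2^−ΔΔCt method, normalized to actin.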

VEGFR2 = VEGFR2 glycosylation in HUVEC (Western blot scoring); format: cell-based, human; conditions: VEGFR2 hypoglycosylation score in HUVEC, 2 μM, 24 h; further: key: ++: robust; +: intermediate; −: absent
HUVEC [1] = assay: Filipin staining of intracellular cholesterol (NPC phenotype); format: cell-based, human; conditions: 0.1 μM, 0.2 μM for 24 h in FIG. 14 legend
Method: Intracellular cholesterol was visualized using filipin staining and fluorescent images were captured under a confocal microscope.
(§1) We thus determined whether compound 248 shared the same mechanism with itraconazole. The intracellular cholesterol was detected using the cholesterol-binding fluorescent dye filipin. […] It is known that AMPK activation leads to mTOR inhibition.
Filipin staining. 2000 HUVECs were plated in chamber slide with 1 ml media and allowed to settle overnight. cCells were treated with 0.1 uM drug or DMSO for 14 hours. The the cells were fixed with 4% paraformaldehyde for 15 min. After washed, cells were incubated with 500 ul 50 ug/ml filipin solution for 1 hour in the dark. Then the cells were washed twice with PBS, mounted and covered with coverslip. The images were taken using confocal microscope under 360/460 nm.

CYP3A4 [2] = target: T1, CYP3A4 (Homo sapiens, UniProt P08684); assay: CYP3A4 enzyme assay (Vivid CYP3A4 Green Screening Kit); format: in vitro ADME; conditions: % enzyme inhibition at 1 μM drug / % enzyme inhibition at 1 μM itraconazole
T1 construct: purchased ThermoFisher P2857; host or cells: baculosomes
Method: And CYP3A4 inhibition was initially determined using a cell-free fluorescence-based assay at a final concentration of 1 μM (Table 7).
CYP3A4 enzyme assay. CYP3A4 enzyme activity was tested using Vivid™ CYP3A4 Green Screening Kit (ThermoFisher, #P2857) using the manufacturer's protocol. Briefly, CYP3A4 baculosomes and drugs were incubated 10 min at 37° C. Then Vivid® Substrates were added and the fluorescence (ex/em:485/520) were read every 1 min for 60 minute.

[3] = system: AMPKα, ACC1, mTOR, p70 S6 Kinase phosphorylation; assay: Western blot of AMPK/mTOR signaling in HUVEC; format: cell-based, human; conditions: 24 h
Method: Cell lysates were subjected to Western blot.
as §1
Western blot. […] Then cells were lysed using RIPA buffer and the protein concentration were measured and normalized. After electrophoresis and transfer onto 0.45 um nitrocellulose membranes, the membranes were bolted with 5% BSA for 1 h and then incubated overnight at 4° C. Secondary antibody was applied to each membrane for 1 hour. Bolts were imaged using Syngene PXi imaging system after adding chemiluminescent substrate. The following antibodies were used for the assay: AMPKα (1:1,000, cell signaling, #2532s), phosphor-AMPKα (1:1,000, cell signaling #2535s), ACC (1:1,000, cell signaling #3662s), phosphor-ACC (1:1,000, cell signaling, #3661s), mTOR (1:1,000, cell signaling, #2972S), phosphor-mTOR (1:1,000, cell signaling, #9234s), p70 S6 Kinase (1:1,000, senta cruz, #sc-8418), phosphor-p70 S6 Kinase (1:1,000, cell signaling, #3662s), anti-Rabbit IgG (1:10000, GE lifesciences, #NA934V).

CYP3A4 [4] = target: T1, CYP3A4; assay: CYP3A4 enzyme assay (Vivid CYP3A4 Green Screening Kit); format: in vitro ADME
HUVEC [5] = assay: HUVEC proliferation assay ([3H]thymidine incorporation); format: cell-based, human; conditions: Homo sapiens; HUVEC, 3H thymidine incorporation; in μM; read-out: Proliferation IC50
Procedure, shortened: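 Pooled HUVEC at passage eight or lower, grown in EGM-2 medium; proliferation measured by [3H]thymidine incorporation as in an earlier published protocol.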

T1 sequence (P08684 whole entry): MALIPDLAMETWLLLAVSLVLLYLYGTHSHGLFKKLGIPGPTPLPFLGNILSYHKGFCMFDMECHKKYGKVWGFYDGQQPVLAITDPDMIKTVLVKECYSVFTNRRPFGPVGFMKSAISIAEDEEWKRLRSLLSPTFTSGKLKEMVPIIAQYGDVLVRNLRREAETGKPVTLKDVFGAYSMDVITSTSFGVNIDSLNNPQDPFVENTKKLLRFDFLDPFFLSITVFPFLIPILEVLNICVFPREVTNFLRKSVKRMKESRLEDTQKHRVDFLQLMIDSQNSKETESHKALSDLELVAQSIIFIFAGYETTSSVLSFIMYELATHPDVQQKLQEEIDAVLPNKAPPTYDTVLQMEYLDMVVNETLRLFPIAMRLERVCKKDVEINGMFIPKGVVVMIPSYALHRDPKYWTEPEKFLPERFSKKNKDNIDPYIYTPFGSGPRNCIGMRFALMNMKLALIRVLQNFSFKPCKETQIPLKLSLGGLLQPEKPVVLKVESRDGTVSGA

| CYP3A4 Inhibition (compared to intracozanole at 1 μm) (CYP3A4 [2]) | SMILES | IC50 (HUVEC [5]) [µM] | also measured |
| --- | --- | --- | --- |
| – | CCC(C)n1ncn(-c2ccc(N3CCN(c4ccc(OCC5COC(Cn6cncn6)(c6ccc(Cl)cc6Cl)O5)cc4)CC3)cc2)c1=O (stereo not shown) [Itraconazole, reference compound] | – | inhibition at 5 µM (HUVEC tube formation): 45%; Gli I Inhibition (IC90 Prolif. dose) (Gli1 transcript; Gli1 transcript fold induction score, MB cells exposed 24 h at the IC90 for MB proliferation): ++ (≤0.15); inhibition of Gli1 transcript levels (Gli1 transcript; established MB cultures, FIG. 9B): Dose-dependent inhibition; Glycosylation (2 μM dose) (VEGFR2): ++; NPC phenotype (cholesterol accumulation in late endosome/lysosome) (HUVEC [1]): induce NPC phenotype |
| 0.02 | CCC(C)n1ncn(-c2ccc(N3CCN(c4ccc(OC[C@@H]5CO[C@@](Cn6cnnn6)(c6ccc(Cl)cc6Cl)O5)cc4)CC3)cc2)c1=O (stereo partly drawn) [Compound 248, 4-(4=(4-(4-(((2S,4R)-2-((1H-tetrazol-1-yl)methyl)-2-(2,4-dichlorophenyl)-1,3-dioxolan-4-yl)methoxy)phenyl)piperazin-1-yl)phenyl)-1-sec-butyl-1H-1,2,4-triazol-5(4H)-one] | – | phosphorylation of AMPKα at Thr172 ([3]; 0.01-1 μM, dose-dependent): increased; phosphorylation of acetyl CoA carboxylase 1 (ACC1) [3]: increased; phosphorylation of mTOR [3]: decrease; phosphorylation of p70 S6 Kinase (S6K) [3]: decrease; IC50 (CYP3A4 [4]; dose response, FIG. 12, read-out: CYP3A4 inhibition IC50): > 20 µM; NPC phenotype (cholesterol accumulation in late endosome/lysosome) (HUVEC [1]): induced NPC phenotype |
| 0.21 | CCC(C)n1ncn(-c2ccc(N3CCN(c4ccc(OC[C@@H]5CO[C@@](CN6CCN(C)CC6)(c6ccc(Cl)cc6Cl)O5)cc4)CC3)cc2)c1=O (stereo partly drawn) [Compound 265, 1-(sec-butyl)-4-(4-(4-(4-(((2S,4R)-2-(2,4-dichlorophenyl)-2-((4-methylpiperazin-1-yl)methyl)-1,3-dioxolan-4-yl)methoxy)phenyl)piperazin-1-yl)phenyl)-1H-1,2,4-triazol-5(4H)-one] | 0.396 | – |
| 1.18 | CCC(C)n1ncn(-c2ccc(N3CCN(c4ccc(OC[C@@H]5CO[C@@](Cn6cnc(C)c6)(c6ccc(Cl)cc6Cl)O5)cc4)CC3)cc2)c1=O (stereo partly drawn) [Compound 238, 1-sec-butyl-4-(4-(4-(4-(((2S,4R)-2-(2,4-dichlorophenyl)-2-((4-methyl-H-imidazol-1-yl)methyl)-1,3-dioxolan-4-yl)methoxy)phenyl)piperazin-1-yl)phenyl)-1H-1,2,4-triazol-5(4H)-one] | 0.102 | – |
| No inhibition | CCC(C)n1ncn(-c2ccc(N3CCN(c4ccc(OC[C@@H]5CO[C@@](CC6CCCC6)(c6ccc(Cl)cc6Cl)O5)cc4)CC3)cc2)c1=O (stereo partly drawn) [Compound 261, 1-sec-butyl-4-(4-(4-(4-(((2R,4R)-2-(cyclopentylmethyl)-2-(2,4-dichlorophenyl)-1,3-dioxolan-4-yl)methoxy)phenyl)piperazin-1-yl)phenyl)-1H-1,2,4-triazol-5(4H)-one] | 0.512 | – |
| No inhibition | CCC(C)n1ncn(-c2ccc(N3CCN(c4ccc(OC[C@@H]5CO[C@@](CN(C)C)(c6ccc(Cl)cc6Cl)O5)cc4)CC3)cc2)c1=O (stereo partly drawn) [Compound 264, 1-(sec-butyl)-4-(4-(4-(4-(((2S,4R)-2-(2,4-dichlorophenyl)-2-((dimethylamino)methyl)-1,3-dioxolan-4-yl)methoxy)phenyl)piperazin-1-yl)phenyl)-1H-1,2,4-triazol-5(4H)-one] | 1.4 | – |
| No inhibition | CCC(C)n1ncn(-c2ccc(N3CCN(c4ccc(OC[C@@H]5CO[C@@](CC)(c6ccc(Cl)cc6Cl)O5)cc4)CC3)cc2)c1=O (stereo partly drawn) [Compound 259, 1-sec-butyl-4-(4-(4-(4-(((2R,4R)-2-(2,4-dichlorophenyl)-2-ethyl-1,3-dioxolan-4-yl)methoxy)phenyl)piperazin-1-yl)phenyl)-1H-1,2,4-triazol-5(4H)-one] | 0.314 | CYP3A4 inhibition in dose response assays (CYP3A4 [4]; FIG. 12, higher concentrations): totally lost CYP3A4 inhibition |
| 1.18 | CCC(C)n1ncn(-c2ccc(N3CCN(c4ccc(OC[C@@H]5CO[C@@](Cn6ccnc6)(c6ccc(Cl)cc6Cl)O5)cc4)CC3)cc2)c1=O (stereo partly drawn) [Compound 233, 4-(4-(4-(4-(((2S,4R)-2-((1H-imidazol-1-yl)methyl)-2-(2,4-dichlorophenyl)-1,3-dioxolan-4-yl)methoxy)phenyl)piperazin-1-yl)phenyl)-1-sec-butyl-1H-1,2,4-triazol-5(4H)-one] | 0.085 | – |
